In ChEMBL document CHEMBL1157261, “Neuroprotective 2-(2-phenylethyl)chromones of Imperata cylindrica” (2006):

Assay: Neuroprotective activity against glutamate-induced neurotoxicity in Sprague-Dawley rat cortical cells at 10 uM after 24 hrs by MTT assay relative to control
Format: functional

SMILES | Activity
C[C@]12N[C@H](Cc3ccccc31)c1ccccc12.O=C(O)/C=C\C(=O)O [DIZOCILPINE MALEATE] | 82.2%
O=c1cc(CCc2ccccc2)oc2cccc(O)c12 | 67%
O=c1cc(/C=C/c2ccccc2)oc2cccc(O)c12 | -11.3%
O=c1cc(CCc2ccccc2O)oc2cccc(O)c12 | 63.6%
